From ChEMBL document CHEMBL4732115, “Discovery of novel cell-penetrating and tumor-targeting peptide-drug conjugate (PDC) for programmable delivery of paclitaxel and cancer treatment” (Eur J Med Chem, 2021)
Calls of active or inactive are those of the source. The calls are words filed in the database; no cut-off is given here. Peptide text beside a SMILES is read from it. * marks the point of attachment. X1 = CC(=O)O[C@H]1C(=O)[C@@]2(C)[C@H]([C@H](OC(=O)c3ccccc3)[C@]3(O)C[C@H](OC(=O)[C@H](OC(=O)OCCS*)[C@@H](NC(=O)c4ccccc4)c4ccccc4)C(C)=C1C3(C)C)[C@]1(OC(C)=O)CO[C@@H]1C[C@@H]2O; X2 = NCCCC[C@H](N*)C(=O)NC(=O)C1CCC(=O)N1

Tests used:
[1] = test system: MCF7; test: Cytotoxicity against human MCF7 cells assessed as reduction in cell viability measured after 48 hrs by MTT assay; type: functional, cell-based; settings: MCF7, 48 h
[2] = test system: HT-29; test: Cytotoxicity against human HT-29 cells assessed as reduction in cell viability measured after 48 hrs by MTT assay; type: functional, cell-based; settings: HT-29, 48 h
[3] = Cytotoxicity against human A2780/PTX cells assessed as reduction in cell viability measured after 48 hrs by MTT assay; type: functional, cell-based
[4] = test system: HEK293; test: Cytotoxicity against HEK293 cells assessed as reduction in cell viability measured after 48 hrs by MTT assay; type: cell-based; settings: Homo sapiens, HEK293, 48 h
[5] = Half life in human plasma at 50 uM by LC-MS analysis; type: ADME, cell-free
[6] = Stability of compound in PBS buffer at 0.5 uM measured after 2 hrs by LC-MS analysis; type: physicochemical
[7] = molecular target: 72 kDa type IV collagenase (Homo sapiens, UniProt P08253); test: Drug metabolism in PBS buffer assessed as MMP2 (unknown origin)-mediated PTX formation at 0.5 uM incubated for 2 hrs followed by GSH addition and measured after 2 hrs by LC-MS analysis; type: ADME; settings: 4 h
[8] = test system: MCF7; test: Cytotoxicity against human MCF7 cells assessed as reduction in cell viability measured after 48 hrs in presence of LHRH by MTT assay; type: functional, cell-based
[9] = test system: MCF7; test: Cytotoxicity against human MCF7 cells assessed as reduction in cell viability measured after 48 hrs in presence of MMP inhibitor ilomastat by MTT assay; type: functional, cell-based
[10] = test system: MCF7; test: Cytotoxicity against human MCF7 cells assessed as reduction in cell viability measured after 48 hrs in presence of MMP inhibitor ilomastat and LHRH by MTT assay; type: functional, cell-based
[11] = Drug uptake in human MCF7 cells at 20 nM measured after 4 hrs in presence of MMP inhibitor ilomastat by LC-MS analysis; type: ADME, cell-based; settings: mcf7, 4 h, 0.02 µM
[12] = test system: MCF7; test: Induction of apoptosis in human MCF7 cells at IC50 measured after 4 hrs by Annexin-V FITC/propidium iodide staining based flow cytometry; type: functional, cell-based
[13] = test system: MCF7; test: Induction of mitochondrial membrane potential loss in human MCF7 cells at IC50 measured after 4 hrs by JC-1 staining based flow cytometry; type: functional, cell-based
[14] = test system: MCF7; test: Cell cycle arrest in human MCF7 cells assessed as increase in accumulation at G2/M-phase at IC50 measured after 4 hrs by […] flow cytometry; type: functional
[15] = molecular target: Tubulin (Homo sapiens) (UniProt P68371+Q9H4B7+P0DPH7+P68366+Q13509+Q71U36+P04350+Q3ZCM7+P07437+P68363+Q9BQE3+Q6PEY2+Q13885+Q9BVA1+Q9BUF5); test: Inhibition of microtubule depolymerization in human MCF7 cells at 1.8 nM measured after 12 hrs by immunostaining based confocal microscopic analysis; type: cell-based
[16] = test system: MCF7; test: Antitumor activity against human MCF7 cells xenografted in BALB/c nude mouse assessed as reduction in tumor volume at 8 umol/kg, ip administered every two days for two weeks relative to control; type: functional; parameters: scale not given: the % may be the effect or the level left; settings: dose 8 µmol/kg; time 2 weeks
[17] = test system: MCF7; test: Antitumor activity against human MCF7 cells xenografted in BALB/c nude mouse assessed as reduction in tumor volume at 12 umol/kg, ip administered every two days for two weeks relative to control; type: functional; parameters: scale not given: the % may be the effect or the level left; settings: dose 12 µmol/kg; time 2 weeks
[18] = test system: MCF7; test: Antitumor activity against human MCF7 cells xenografted in BALB/c nude mouse assessed as reduction in tumor weight at 12 umol/kg, ip administered every two days for two weeks relative to control; type: functional; parameters: scale not given: the % may be the effect or the level left; settings: dose 12 µmol/kg; time 2 weeks
[19] = Toxicity in human MCF7 cells xenografted in BALB/c nude mouse assessed as morphological changes in liver at 8 to 12 umol/kg, ip administered every two days for two weeks measured post last dose by H and E staining based histological analysis; type: organism-based; settings: in vivo, 336 h, dose 8-12 µmol/kg, time 2 weeks
[20] = Toxicity in human MCF7 cells xenografted in BALB/c nude mouse assessed as morphological changes in lung at 8 to 12 umol/kg, ip administered every two days for two weeks measured post last dose by H and E staining based histological analysis; type: organism-based; settings: in vivo, 336 h, dose 8-12 µmol/kg, time 2 weeks
[21] = test system: MCF7; test: Induction of apoptosis in human MCF7 cells xenografted in ip dosed BALB/c nude mouse assessed as up regulation of Bax expression administered every two days for two weeks measured post last dose by Western blot analysis; type: functional, organism-based; settings: dose 8-12 µmol/kg, time 2.0 weeks
[22] = Drug conversion in tumor of BALB/c nude mouse xenografted with human MCF7 cells assessed as PTX formation at 8 to 12 umol/kg, ip measured after 2 hrs by LC-MS analysis; type: ADME, organism-based, Neoplasm; settings: in vivo, dose 8-12 µmol/kg
[23] = Drug conversion in liver of BALB/c nude mouse xenografted with human MCF7 cells assessed as T2-PTX formation at 8 to 12 umol/kg, ip measured after 2 hrs by LC-MS analysis; type: ADME, organism-based; settings: in vivo, dose 8-12 µmol/kg
[24] = Neurotoxicity in BALB/c mouse assessed as increase in pain sensitivity at 12 umol/kg, ip administered every two days for 14 days by cold water tail immersion test; type: toxicity, organism-based; settings: in vivo, 336 h, dose 12 µmol/kg, time 14 day
[25] = Neurotoxicity in BALB/c mouse assessed as change in acetylcholine level at 12 umol/kg, ip administered every two days for 14 days measured post last dose by LC-MS analysis; type: toxicity, organism-based; settings: in vivo, 336 h, dose 12 µmol/kg, time 14 day
[26] = Neurotoxicity in BALB/c mouse assessed as change in dopamine level at 12 umol/kg, ip administered every two days for 14 days measured post last dose by LC-MS analysis; type: toxicity, organism-based; settings: in vivo, 336 h, dose 12 µmol/kg, time 14 day
[27] = Neurotoxicity in BALB/c mouse assessed as change in GABA level at 12 umol/kg, ip administered every two days for 14 days measured post last dose by LC-MS analysis; type: toxicity, organism-based; settings: in vivo, 336 h, dose 12 µmol/kg, time 14 day
[28] = Neurotoxicity in BALB/c mouse assessed as change in histamine level at 12 umol/kg, ip administered every two days for 14 days measured post last dose by LC-MS analysis; type: toxicity, organism-based; settings: in vivo, 336 h, dose 12 µmol/kg, time 14 day
[29] = Neurotoxicity in BALB/c mouse assessed as change in histidine level at 12 umol/kg, ip administered every two days for 14 days measured post last dose by LC-MS analysis; type: toxicity, organism-based; settings: in vivo, 336 h, dose 12 µmol/kg, time 14 day
[30] = Myelosuppression in BALB/c mouse assessed as change in granulocyte count at 12 umol/kg, ip administered every two days for 14 days measured post last dose; type: ADME, organism-based; settings: in vivo, 336 h, dose 12 µmol/kg, time 14 day

Sequence of 72 kDa type IV collagenase (P08253 whole entry): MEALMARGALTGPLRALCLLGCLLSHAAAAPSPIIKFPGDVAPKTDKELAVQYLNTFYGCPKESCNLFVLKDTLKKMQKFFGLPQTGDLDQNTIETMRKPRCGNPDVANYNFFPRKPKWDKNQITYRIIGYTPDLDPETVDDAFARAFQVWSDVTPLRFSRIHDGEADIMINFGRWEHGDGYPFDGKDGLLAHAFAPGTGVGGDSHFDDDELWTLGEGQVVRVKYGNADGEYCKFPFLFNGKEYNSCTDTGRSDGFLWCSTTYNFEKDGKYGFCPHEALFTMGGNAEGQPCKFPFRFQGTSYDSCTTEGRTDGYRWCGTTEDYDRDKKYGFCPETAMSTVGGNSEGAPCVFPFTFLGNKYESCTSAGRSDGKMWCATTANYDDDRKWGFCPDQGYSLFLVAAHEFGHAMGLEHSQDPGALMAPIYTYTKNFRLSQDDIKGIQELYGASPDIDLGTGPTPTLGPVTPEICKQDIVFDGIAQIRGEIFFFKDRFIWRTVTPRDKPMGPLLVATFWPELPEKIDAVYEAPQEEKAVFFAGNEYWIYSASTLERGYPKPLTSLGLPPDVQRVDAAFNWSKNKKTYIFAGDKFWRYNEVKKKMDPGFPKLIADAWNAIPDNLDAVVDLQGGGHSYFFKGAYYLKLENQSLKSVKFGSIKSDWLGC

## CC(=O)O[C@H]1C(=O)[C@@]2(C)[C@H]([C@H](OC(=O)c3ccccc3)[C@]3(O)C[C@H](OC(=O)[C@H](OC(=O)OCCSSC[C@H](N)C(=O)N[C@@H](CC(C)C)C(=O)N[C@@H](CC(C)C)C(=O)N[C@@H](CCCCN)C(=O)N[C@@H](CCCNC(=N)N)C(=O)N[C@@H](Cc4ccccc4)C(=O)N[C@@H](Cc4ccccc4)C(=O)N[C@@H](CCCCN)C(=O)N[C@@H](CCCCN)C(=O)N[C@@H](Cc4ccccc4)C(=O)NCC(=O)N[C@@H](C)C(=O)N[C@@H](CC(C)C)C(=O)NCC(=O)N[C@@H](CC(C)C)C(=O)N4CCC[C@H]4C(=O)NCC(=O)N4CCC[C@H]4C(=O)N[C@@H](CCCNC(=N)N)C(=O)N[C@@H](CC(C)C)C(=O)NCC(=O)N[C@@H](Cc4ccc(O)cc4)C(=O)N[C@@H](CO)C(=O)N[C@@H](Cc4c[nH]c5ccccc45)C(=O)N[C@@H](CCCCN)C(=O)NC(=O)C4CCC(=O)N4)[C@@H](NC(=O)c4ccccc4)c4ccccc4)C(C)=C1C3(C)C)[C@]1(OC(C)=O)CO[C@@H]1C[C@@H]2O (stereo not given in full) (H-C(X1)LLKRFFKKFGALGLPGPRLGYSW-X2)
[1]
  IC50: 3.8 nM
[2]
  IC50: 5.6 nM
[3]
  IC50: 800 nM
[4]
  IC50: 66 nM
[5]
  half-life at 50 µM: 2 h
[6]
  Stabilty: Stable
[7]
  Drug metabolism: Metabolite_Detected
[8]
  Activity: inactive
[9]
  Activity: inactive
[10]
  Activity: inactive
[11]
  Drug uptake: Active
[12]
  Activity: Active
[13]
  Activity: Active
[14]
  Activity: Active
[15]
  inhibition: Active
[16]
  Activity: 77.2%
[17]
  Activity: 90.1%
[18]
  Activity: 83.4%
[19]
  Activity: Non-Toxic
[20]
  Activity: Non-Toxic
[21]
  Activity: Dose-dependent effect
[22]
  Drug metabolism: Metabolite_Detected
[23]
  Drug metabolism: Metabolite_Notdetected
[24]
  Activity: Non-Toxic
[25]
  Activity: Non-Toxic
[26]
  Activity: Non-Toxic
[27]
  Activity: Non-Toxic
[28]
  Activity: Non-Toxic
[29]
  Activity: Non-Toxic
[30]
  Activity: Non-Toxic
